Test results taken from patent publication US8476408B2, “Unacylated ghrelin and analogs as therapeutic agents for vascular remodeling in diabetic patients and treatment of cardiovascular disease” (Alize Pharma SAS, priority 2008, dated 2013).
Where no end group is shown, it is not given here.

Key:
HIT-T15 β-cells = assay: Survival of cytokine-treated HIT-T15 β-cells (MTT); format: cell-based; details: cytokines (IFN-γ/TNF-α/IL-1β), peptides 1 nM to 100 nM
Protocol: The survival effect of UAG (6-13) (SEQ ID NO: 6), UAG (8-13) (SEQ ID NO: 7), UAG (8-12) (SEQ ID NO: 8), UAG (8-11) (SEQ ID NO: 12), UAG (9-12) (SEQ ID NO: 9) and UAG (9-11) (SEQ ID NO: 10) was assessed in cytokine-treated HIT-T15 β-cells. […] The protective effects of peptides UAG (8-13) (SEQ ID NO: 7) and UAG (8-12) (SEQ ID NO: 8) were found similar to those of UAG (1-14) (SEQ ID NO: 2) and UAG (1-18) (SEQ ID NO: 3). A peptide made of the inverse sequence of UAG (1-14) (SEQ ID NO: 2) and named UAG (14-1) (SEQ ID NO: 11), was used as negative control for these experiments. […] These effects were however lower than those of UAG (6-13) (SEQ ID NO: 6).

CAC [1] = assay: Detection of ROS in CAC (DCF-DA assay, FACS); format: cell-based, human
Protocol: Peripheral-blood mononuclear cells (PB-MNC) isolated by Fycoll Histopaque 1077 (Sigma) were resuspended in 20% FBS 199 Medium and plated on fibronectin-coated dishes (Biocoat, Becton Dickinson Labware) as described by Hill et al. (Ref. 19). Human UAG studies were performed on CAC recovered from normal donors and diabetic patients. The purity of sorted cells was assessed by FACS analysis (Ref. 20). For experiments, the isolated CAC were cultured under 5% CO2 at 37° C. for 4 days on 20 μg/ml fibronectin-coated dishes in EGM-2 medium containing 10% FBS, hydrocortisone, human Fibroblast Growth Factor, Vascular Endothelial Growth Factor, Insulin Growth Factor 1, ascorbic acid, human Epidermal Growth Factor, gentamicin and amphotericin-B (Cambrex, Walkersville, Md., USA) alone or in combination with 1 μM UAG and 1.2 mg/ml AGE. In selected experiments, isolated CAC were cultured in EBM-2 medium (Cambrex, Walkersville, Md., USA) supplemented with 10 ng/ml of IL-3. FACS was used to analyze their phenotype (anti-CD45, anti-CD31, anti-CD105, anti-CD14 antibodies were used) (Ref. 22).
Detection of ROS—DCF-DA (0.5 μM final concentration) was added to CAC in the indicated culture conditions. At the indicated times, the cells were subjected to FACS analysis and processed as previously described (Ret. 22). H2O2 was used as positive control.

CAC [2] = assay: CAC mobilization assay in healthy subjects and diabetic patients; format: in vivo, human; details: diabetic patients compared to normal subjects, 6 hours treatment; FIG. 3B
Protocol: All the subjects underwent the following testing session: • UAG (3.0 μg/kg/h iv. as infusion for 12 h from 0 to 12 hours); • isotonic saline (infusion from 0 to 12 hours).
All tests were performed starting at 08.30-09.00 a.m. after overnight fasting, 30 minutes after an indwelling catheter had been placed into a forearm vein by slow infusion of isotonic saline. Blood samples were taken at 0 h, 6 h and 12 h.
Mobilization assay—CAC recovered from healthy subjects and diabetic patients, treated with UAG or saline for 6 h and 12 h, were evaluated. Total number of MNC was counted by 3 independent investigators. The percentage of CAC was calculated by comparing CAC obtained from diabetic patients and healthy donors, treated for 6 h and 12 h with UAG, AG or saline, to CAC recovered at time 0.

CAC [3] = assay: Expansion (S phase) of CAC recovered from treated mice; format: in vivo; details: CAC from UAG-challenged mice, IL-3; FIG. 4C
Protocol: Flow Cytometry—To analyze CAC cell-cycle progression, cells recovered from diabetic, healthy subjects, NOD/SCID, ob/ob and wt mice, were cultured in EBM-2 supplemented with IL-3 (10 ng/ml), FACS analysis was performed as previously described (Ref. 20). Cell surface molecules were evaluated by flow cytometry as previously described (Ref. 24). Frequency of marker-positive cells is expressed as mean±standard deviation (SD).
(§1) Isolation and Culture of CAC from C57BU6J, C57BL/6J ob/ob mice and NOD/SCID mice—6 weeks old C57BL/6J (wt) and ob/ob mice, 7 and 17 weeks old NOD/SCID mice were purchased from Charles River Lab (Lecco, Italy). Animals were anesthetized by intraperitoneal injection with Avertin (100 mg/50ml ip). Blood samples were drawn from left ventricular, as described by Hoff (Ref. 27). Peripheral blood MNC were isolated by Ficoll density-gradient centrifugation. Recovered cells were washed twice Isolated cells were resuspended and were cultured on 20 μg/ml fibronectin-coated dishes in EGM-2 BulletKit Medium. In selected experiments, the isolated CAC were cultured in EBM-2 medium supplemented with 10 ng/ml of IL-3.

CAC [4] = assay: Arterial commitment of CAC recovered from treated mice (Q-RT-PCR); format: in vivo; details: CAC from UAG-challenged mice cultured with IL-3; FIG. 4D
Protocol: RNA isolation and quantitative real-time PCR—CAC from diabetic patients, healthy subjects and mice treated with UAG or saline were cultured in EGM-2 medium. Human arterial and venous cells were used as a positive controls. mRNA quantification was performed by Q-RT-PCR, as previously described (Ref. 24). The relative expression of Ephrin B2, Notch1, Notch4 and EphB4 were calculated by using comparative threshold cycle methods. The human and murine primer sequences used were described (Refs. 25, 26).
as §1

cardiomyocytes = details: Ref. 8; cited from earlier work
human arteries = details: Ref. 35; cited from earlier work

1-NH2Gly-Ser-Ser-Phe-Leu-Ser-Pro-Glu-His-Gln-Arg-Val-Gln-Gln-Arg-Lys-Glu-Ser-Lys-Lys-Pro-Pro-Ala-Lys-Leu-Gln-Pro-Arg-28 (GSSFLSPEHQRVQQRKESKKPPAKLQPR; ends and bridges not checked; listed as Homo sapiens) [UAG]
survival effect on cytokine-induced cell death (HIT-T15 β-cells): comparable | level of ROS production in AGE-cultured cells (CAC [1]; AGE-cultured CAC, FIG. 1C, 1F): reduced | intracellular ROS production in diabetic-recovered cells (CAC [1]; CAC isolated from type 2 diabetic patients, FIG. 1D): reduced intracellular ROS production | baseline level of ROS production (CAC [1]; compared to untreated cells, FIG. 1B, 1E): drastically reduces the baseline level of ROS production | number of recovered CAC (CAC [2]): strong increase in the number of recovered cells | expansion of recovered CAC (CAC [3]): could be expanded | arterial commitment of recovered CAC (CAC [4]): acquire arterial commitment | experimentally-induced cell death (cardiomyocytes): inhibit experimentally-induced cell death | vasodilator action (human arteries): vasodilator actions
